Test system: OCI-Ly10 human DLBCL cells
Experiment: OCI-Ly10 anti-proliferative activity (Resazurin, 72 h)
Format: cell-based
Settings: read-out: Proliferation OCI-Ly10-IC50
Method: Compounds were assayed for effects on the growth of OCI-Ly10 human DLBCL cells that are dependent on NFκB signalling. OCI-Ly10 cells were grown in suspension in T225 flasks, centrifuged and re-suspended in 2.5% FBS containing media. Cells were then plated at 7.5×10^3 cells per well in 96-well plates in varying concentrations of compound and incubated for 72 h at 37° C. An additional plate of cells to be used as the Day 0 read was seeded without compound addition, Resazurin was added to each well, incubated for 5 h and the fluorescence measured at 590 nm. After 72 h of compound treatment, Resazurin was added to each well of the compound treated plates, incubated for 5 h and the fluorescence measured at 590 nm. The IC50 was then calculated by subtracting the average Day 0 value from each well value from the treated plates, each treatment was then calculated as a percentage of the DMSO control and the percentages plotted against the inhibitor concentration to estimate the IC50 from log [Inhibitor] vs response using the Variable Slope model in Graphpad prism from Graphpad software (SanDiego, Calif.).

IC50: 10 to 100 nM
SMILES: COc1ccccc1C(=O)NCc1ccc(-c2nn(C3CCC(C(=O)N(C)C)CC3)c3ncnc(N)c23)cc1 (single isomer, unassigned; isomer 1) [33-isomer 1]

Reference: patent US10611766B2, “Pyrazolopyrimidine derivatives as BTK inhibitors for the treatment of cancer” (Loxo Oncology, Inc., priority 2015, dated 2020)
